For 21 molecules, IC50 results are on record in US11878975B2, “Substituted indole compounds useful as TLR inhibitors” (BRISTOL-MYERS SQUIBB COMPANY, priority 2017, dated 2024).

Some results are limits rather than exact numbers.

Common to all, as to type: cell-based
For experiment [1], the target named is T1, human TLR8 (Homo sapiens, UniProt Q9NR97).
T1 construct: host or cells: HEK-Blue cells
T1 sequence (Q9NR97 27-1041): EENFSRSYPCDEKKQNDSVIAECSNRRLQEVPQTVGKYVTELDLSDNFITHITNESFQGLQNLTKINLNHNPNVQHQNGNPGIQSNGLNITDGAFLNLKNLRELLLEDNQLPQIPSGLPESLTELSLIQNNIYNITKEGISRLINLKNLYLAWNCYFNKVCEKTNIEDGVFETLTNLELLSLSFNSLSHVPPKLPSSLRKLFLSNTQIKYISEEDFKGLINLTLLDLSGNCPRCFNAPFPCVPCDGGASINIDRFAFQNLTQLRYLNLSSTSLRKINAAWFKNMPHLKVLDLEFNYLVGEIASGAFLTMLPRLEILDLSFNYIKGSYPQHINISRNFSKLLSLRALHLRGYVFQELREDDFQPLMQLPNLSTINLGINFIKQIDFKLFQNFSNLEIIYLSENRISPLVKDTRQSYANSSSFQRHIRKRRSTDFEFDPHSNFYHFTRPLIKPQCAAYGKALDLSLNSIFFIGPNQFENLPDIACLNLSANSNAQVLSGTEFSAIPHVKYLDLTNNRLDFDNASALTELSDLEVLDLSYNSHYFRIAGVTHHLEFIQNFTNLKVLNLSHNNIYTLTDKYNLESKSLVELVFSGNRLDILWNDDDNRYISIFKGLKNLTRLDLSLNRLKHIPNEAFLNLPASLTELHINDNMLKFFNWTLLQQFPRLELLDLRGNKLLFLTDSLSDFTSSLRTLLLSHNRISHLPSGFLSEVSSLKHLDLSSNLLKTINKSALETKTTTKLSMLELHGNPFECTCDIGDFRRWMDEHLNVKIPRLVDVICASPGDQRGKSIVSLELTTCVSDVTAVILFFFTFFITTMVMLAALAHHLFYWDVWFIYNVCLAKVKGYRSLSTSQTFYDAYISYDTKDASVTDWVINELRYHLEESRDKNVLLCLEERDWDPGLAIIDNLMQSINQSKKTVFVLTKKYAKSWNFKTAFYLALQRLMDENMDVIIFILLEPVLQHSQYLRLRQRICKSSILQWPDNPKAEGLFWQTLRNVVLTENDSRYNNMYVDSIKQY
The experiment in a line: TLR8 inhibition reporter assay (HEK-Blue cells, SEAP reporter, R848 stimulation). Conditions: HEK-Blue cells overexpressing human TLR8, SEAP reporter, R848 15.9 μM. In short, it runs like this: (§1)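 Dose range 0.05 nM–50 μM; 30 min preincubation, RT. Agonists: TLR7 gardiquimod 7.5 μM, TLR8 R848 15.9 μM, TLR9 ODN2006 5 nM. 22 h, 37 °C, 5% CO2. SEAP (IFN-β minimal promoter with NF-κB/AP-1 sites) via colorimetric detection medium; % inhibition vs agonist+DMSO and reference-inhibitor wells.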

Experiment [2] deals with T2, human TLR9 (Homo sapiens, UniProt Q9NR96).
T2 construct: host or cells: HEK-Blue cells
T2 sequence (Q9NR96 26-1032): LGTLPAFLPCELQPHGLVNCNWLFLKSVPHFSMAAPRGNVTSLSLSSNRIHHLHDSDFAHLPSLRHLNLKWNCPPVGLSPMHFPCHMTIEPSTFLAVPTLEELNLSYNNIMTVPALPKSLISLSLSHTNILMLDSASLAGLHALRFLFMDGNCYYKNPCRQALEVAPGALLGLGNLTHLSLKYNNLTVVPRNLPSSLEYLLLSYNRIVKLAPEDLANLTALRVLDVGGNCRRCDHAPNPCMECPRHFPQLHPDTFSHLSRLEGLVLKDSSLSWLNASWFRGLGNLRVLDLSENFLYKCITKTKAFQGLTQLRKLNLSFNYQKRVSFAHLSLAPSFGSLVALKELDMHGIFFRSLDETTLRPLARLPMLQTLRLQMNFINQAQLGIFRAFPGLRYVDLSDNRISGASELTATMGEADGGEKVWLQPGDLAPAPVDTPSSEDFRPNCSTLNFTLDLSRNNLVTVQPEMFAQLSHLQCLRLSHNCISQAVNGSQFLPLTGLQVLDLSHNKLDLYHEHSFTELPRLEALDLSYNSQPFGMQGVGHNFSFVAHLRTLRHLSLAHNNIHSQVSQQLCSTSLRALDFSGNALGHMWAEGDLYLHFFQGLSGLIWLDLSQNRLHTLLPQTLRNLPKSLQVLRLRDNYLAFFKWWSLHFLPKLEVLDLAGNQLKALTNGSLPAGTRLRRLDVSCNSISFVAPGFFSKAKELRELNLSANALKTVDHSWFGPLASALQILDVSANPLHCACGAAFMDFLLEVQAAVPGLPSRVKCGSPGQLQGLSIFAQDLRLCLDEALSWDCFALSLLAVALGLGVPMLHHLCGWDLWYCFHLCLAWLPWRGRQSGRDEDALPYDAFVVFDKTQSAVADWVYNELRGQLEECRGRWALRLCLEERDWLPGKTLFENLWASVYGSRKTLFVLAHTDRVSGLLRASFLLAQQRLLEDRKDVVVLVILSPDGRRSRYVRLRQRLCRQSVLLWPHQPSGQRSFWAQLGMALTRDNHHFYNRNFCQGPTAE
The experiment in a line: TLR9 inhibition reporter assay (HEK-Blue cells, SEAP reporter, ODN2006 stimulation). The following applies: HEK-Blue cells overexpressing human TLR9, SEAP reporter, ODN2006 5 nM. In short, it runs like this: as §1

Experiment [3] concerns the target T3, human TLR7 (Homo sapiens, UniProt Q9NYK1).
T3 construct: host or cells: HEK-Blue cells
T3 sequence (Q9NYK1 27-1049): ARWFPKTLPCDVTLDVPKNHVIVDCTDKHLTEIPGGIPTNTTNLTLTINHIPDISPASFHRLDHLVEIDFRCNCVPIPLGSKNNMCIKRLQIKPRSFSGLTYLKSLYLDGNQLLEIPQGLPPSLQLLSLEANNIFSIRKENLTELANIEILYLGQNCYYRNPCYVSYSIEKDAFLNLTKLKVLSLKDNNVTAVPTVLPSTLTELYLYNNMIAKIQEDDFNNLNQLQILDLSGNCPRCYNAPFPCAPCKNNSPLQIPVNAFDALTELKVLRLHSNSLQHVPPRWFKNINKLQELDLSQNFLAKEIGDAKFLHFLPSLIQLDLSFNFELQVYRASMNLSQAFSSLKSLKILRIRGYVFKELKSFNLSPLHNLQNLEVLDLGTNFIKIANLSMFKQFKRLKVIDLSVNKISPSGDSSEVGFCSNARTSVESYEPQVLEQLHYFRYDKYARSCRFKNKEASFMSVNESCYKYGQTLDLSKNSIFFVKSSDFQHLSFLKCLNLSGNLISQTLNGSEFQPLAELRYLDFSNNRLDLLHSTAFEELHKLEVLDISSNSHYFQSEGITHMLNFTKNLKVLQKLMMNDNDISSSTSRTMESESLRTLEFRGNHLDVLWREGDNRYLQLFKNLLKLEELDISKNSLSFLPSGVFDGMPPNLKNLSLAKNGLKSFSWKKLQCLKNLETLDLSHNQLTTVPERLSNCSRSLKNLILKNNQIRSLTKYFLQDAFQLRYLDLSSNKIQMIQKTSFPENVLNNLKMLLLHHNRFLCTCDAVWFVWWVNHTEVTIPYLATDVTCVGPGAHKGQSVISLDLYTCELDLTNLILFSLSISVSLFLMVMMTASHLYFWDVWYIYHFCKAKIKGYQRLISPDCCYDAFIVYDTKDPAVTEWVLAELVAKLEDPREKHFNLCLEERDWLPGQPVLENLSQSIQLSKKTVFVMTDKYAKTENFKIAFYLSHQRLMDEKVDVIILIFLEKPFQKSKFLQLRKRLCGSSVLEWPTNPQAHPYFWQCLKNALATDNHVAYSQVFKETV
The experiment can be described thus: TLR7 inhibition reporter assay (HEK-Blue cells, SEAP reporter, gardiquimod stimulation). Conditions: HEK-Blue cells overexpressing human TLR7, SEAP reporter, gardiquimod 7.5 μM. The essentials: as §1

Regarding `Cc1c(-c2[nH]c3ccc(C4CN(CC(=O)N(C)C)CCO4)cc3c2C(C)C)cn2ncnc2c1C` (stereo not drawn) [Example 312], the IC50 was 21 nM in experiment [1], greater than 50000 nM in experiment [2] and 46 nM in experiment [3].

Consider `COc1cc(-c2[nH]c3ccc(C4CCC(N5CC6(COC6)C5)CC4)cc3c2C(C)C)cn2ncnc12` (stereo not drawn) [Example 96], for which the IC50 was determined as 3.3 nM in experiment [1], 1740 nM in experiment [2] and 2 nM in experiment [3].

For the molecule `COc1cc(-c2[nH]c3ccc(C4CN(CC(=O)N(C)C)CCO4)cc3c2C(C)C)cn2ncnc12` (stereo not drawn) [Example 314], the IC50 in experiment [1] is 13 nM; in experiment [2], greater than 50000 nM; in experiment [3], 24 nM.

Regarding `Cc1c(-c2[nH]c3ccc(C4CCC(N5CCOCC5)CC4)cc3c2C(C)C)cn2ncnc2c1C` (single isomer, unassigned) [Example 92], the IC50 in experiment [1] was found to be 0.33 nM; in experiment [2] it was 2680 nM; in experiment [3], 0.39 nM.

Turning to `COc1cc(-c2[nH]c3ccc(C4CCC(NC5(C)COC5)CC4)cc3c2C(C)C)cn2ncnc12` (single isomer, unassigned) [Example 44], the IC50 in experiment [1] was determined as 0.76 nM; in experiment [2] it was 1960 nM; in experiment [3], 0.21 nM.

As for `CNC1CCC(c2ccc3[nH]c(-c4cc(C)nc(C)c4)c(C(C)C)c3c2)CC1` (single isomer, unassigned) [Example 51], the values for the IC50 in experiment [1], in experiment [2] and in experiment [3] were 11 nM, 602 nM and 4 nM, respectively.

In the case of `Cc1cc(-c2[nH]c3ccc(C4CN(CCS(C)(=O)=O)CCO4)cc3c2C(C)C)cc(C)n1` (stereo not drawn) [Example 351], the IC50 came out at 31 nM in experiment [1], 48300 nM in experiment [2] and 28 nM in experiment [3].

Turning to `COc1cc(-c2[nH]c3ccc(C4CC(N(C)CCS(C)(=O)=O)C4)cc3c2C(C)C)cn2ncnc12` (stereo not drawn) [Example 587], the IC50 in experiment [1] worked out at 5.7 nM; in experiment [2] it was 21300 nM; in experiment [3], 5 nM.

`Cc1cc(-c2[nH]c3ccc(CCN4CCCC4)cc3c2C(C)C)cn(C)c1=O` [Example 405]: the figures for the IC50 in experiment [1], in experiment [2] and in experiment [3] were 8.4 nM, 13700 nM and 35 nM, respectively.

On to `Cc1c(-c2[nH]c3ccc(C4CC5CN(CC(N)=O)CC5C4)cc3c2C(C)C)cn2ncnc2c1C` (stereo not drawn) [Example 511], for which the results for the IC50 in experiment [1], in experiment [2] and in experiment [3] were 6.1 nM, 12300 nM and 0.94 nM, respectively.

For `COc1cc(-c2[nH]c3ccc(C4CCC(N5CC[C@@H](N(C)C)C5)CC4)cc3c2C(C)C)cn2ncnc12` (stereo partly drawn) [Example 30], the values for the IC50 in experiment [1], in experiment [2] and in experiment [3] were 5 nM, 824 nM and 3 nM, respectively.

For `Cc1cc(-c2[nH]c3ccc(C4CCC(N5CCN(C)CC5)CC4)cc3c2C(C)C)cc(C)n1` (single isomer, unassigned) [Example 37], the IC50 in experiment [1] turned out to be 56 nM; in experiment [2], 583 nM; in experiment [3], 29 nM.

As for `COc1cc(-c2[nH]c3ccc(C4CCCN(C5COC5)C4)cc3c2C(C)C)cn2ncnc12` (stereo not drawn) [Example 243], the results for the IC50 in experiment [1], in experiment [2] and in experiment [3] were 16 nM, 12900 nM and 10 nM, respectively.

`COc1cc(-c2[nH]c3ccc(C4CCC(N(C)CC(F)F)CC4)cc3c2C(C)C)cn2ncnc12` (stereo not drawn) [Example 81]: the IC50 turned out to be 104 nM in experiment [1], 25500 nM in experiment [2] and 17 nM in experiment [3].

Turning to `COc1cc(-c2[nH]c3ccc(C4CC5CN(C6COC6)CC5C4)cc3c2C(C)C)cn2ncnc12` (stereo not drawn) [Example 513], the IC50 turned out to be 20 nM in experiment [1], 12500 nM in experiment [2] and 0.96 nM in experiment [3].

In the case of `COc1cc(-c2[nH]c3ccc(CCN4CCOCC4)cc3c2C(C)C)cn2ncnc12` [Example 411], the results for the IC50 in experiment [1], in experiment [2] and in experiment [3] were 7.9 nM, 8960 nM and 7 nM, respectively.

On to `COCCN1CCOC(c2ccc3[nH]c(-c4cc(C)nc(C)c4)c(C(C)C)c3c2)C1` (stereo not drawn) [Example 352], for which the IC50 is 15 nM in experiment [1], 3700 nM in experiment [2] and 42 nM in experiment [3].

Turning to `Cc1cc(-c2[nH]c3ccc(C4CN(CC(N)=O)CCO4)cc3c2C(C)C)cn2ncnc12` (stereo not drawn) [Example 318], the results for the IC50 in experiment [1], in experiment [2] and in experiment [3] were 48 nM, greater than 50000 nM and 6 nM, respectively.

Regarding `Cc1cc(-c2[nH]c3ccc(C4CCCN(C(=O)C5(C)COC5)C4)cc3c2C(C)C)cc(C)n1` (stereo not drawn) [Example 203], the IC50 was 345 nM in experiment [1], 43900 nM in experiment [2] and 56 nM in experiment [3].

Consider `Cc1c(-c2[nH]c3ccc(C4CCC(N5CCOCC5)CC4)cc3c2C(C)C)cn2ncnc2c1C` (single isomer, unassigned) [Example 93], for which the figures for the IC50 in experiment [1], in experiment [2] and in experiment [3] were 3.8 nM, 3800 nM and 3 nM, respectively.

Turning to `Cc1c(-c2[nH]c3ccc(C4CCC(NC5COC5)CC4)cc3c2C(C)C)cn2cnnc2c1C` (stereo not drawn) [Example 524], the IC50 in experiment [1] is 21 nM; in experiment [2], 11100 nM; in experiment [3], 12 nM.
